Source: publication PMC3252880, “Synthesis of 2-amino-3-arylpropan-1-ols and 1-(2,3-diaminopropyl)-1,2,3-triazoles and evaluation of their antimalarial activity” (Beilstein Journal of Organic Chemistry, 2011)
Values joined by “and” are separate entries in the source; they are usually repeats but may differ in a detail not shown here. Equal entries are not always repeated. Where two headings read alike, the source gives them in different places.

Columns and labels:
[1] = system: chloroquine-sensitive (CQS) strain of P. falciparum (D10); experiment: in vitro antiplasmodial activity, chloroquine-sensitive strain D10; type: cell-based, Plasmodium falciparum; details: for antiplasmodial activity (in words): in vitro, P. falciparum
Method: All samples were tested in triplicate on one occasion against a chloroquine-sensitive (CQS) strain of P. falciparum (D10). […] The antiplasmodial and cytotoxicity assays were performed as described previously.

[2] = system: chloroquine-resistant (CQR) strain of P. falciparum (Dd2); experiment: in vitro antiplasmodial activity, chloroquine-resistant strain Dd2; type: cell-based, Plasmodium falciparum; details: for RI (Resistance Index) = IC50 Dd2/IC50 D10: ratio Dd2/D10
[3] = system: Chinese hamster ovary (CHO) cell-line; experiment: in vitro cytotoxicity against CHO cell-line; type: cell-based; details: for IC50: read-out: CHO: IC50; for SI (Selectivity Index) = IC50 CHO/IC50 D10: ratio CHO/D10
Method: At first, compounds 6a–c, 8a–e, 9a–d, 12a,b, 14a–e, 15a–f and 16a–g were screened for in vitro antiplasmodial activity. All samples were tested in triplicate on one occasion against a chloroquine-sensitive (CQS) strain of P. falciparum (D10). Those samples showing antiplasmodial activity were then tested in triplicate on one occasion against a chloroquine-resistant (CQR) strain of P. falciparum (Dd2) and screened for in vitro cytotoxicity against a Chinese hamster ovary (CHO) cell-line, in triplicate on one occasion. The antiplasmodial and cytotoxicity assays were performed as described previously.

P. falciparum = system: P. falciparum; parameters: method as in PMID 17194200, PMID 14500986; details: cited from earlier work
P. berghei = system: P. berghei; parameters: method as in PMID 17194200, PMID 14500986; details: in vivo; cited from earlier work
[4] = Plasmodium falciparum, D10, read-out: D10: IC50, CQS strain D10, tested in triplicate on one occasion, hydrophobic samples added as suspension
[5] = CQS strain D10, tested in triplicate on one occasion, hydrophobic samples added as suspension, read-out: D10: IC50
[6] = Plasmodium falciparum, D10, CQS strain D10, tested in triplicate on one occasion, hydrophobic samples added as suspension, read-out: D10: IC50
[7] = Plasmodium falciparum, DD2, read-out: Dd2: IC50
[8] = read-out: D10: IC50, CQS strain D10, tested in triplicate on one occasion, hydrophobic samples added as suspension
[9] = CHO cell-line, in triplicate on one occasion
[10] = CQR strain Dd2, tested in triplicate on one occasion, read-out: Dd2: IC50
[11] = Cricetulus griseus, CHO cell-line, in triplicate on one occasion
[12] = Plasmodium falciparum, CQR strain Dd2, tested in triplicate on one occasion, read-out: Dd2: IC50

For `COc1ccc(-c2cn(CC3CN3Cc3ccccc3)nn2)cc1` (centres unmarked) [Compound 15e], which IC50 [1, 4] is on record?
The IC50 was 40.5 µM.

For `CCN(CC)CC(Cn1cc(-c2ccccc2)nn1)NCc1ccc(OC)cc1` (centres unmarked) [Compound 16c], which IC50 [1, 5] is on record?
The IC50 was 140 µM.

For `COc1ccccc1[C@@H](O)[C@@H](CO)NC(C)(C)C` [Compound 12a, syn-2-(N-tert-Butylamino)-1-(2-methoxyphenyl)propan-1,3-diol], which melting point is on record?
Its melting point is 112.8 °C.

What about the IC50 [1, 6] of the same compound?
Its IC50 is 98.7 µM.

For `COc1ccc(CN2CC2CN=[N+]=[N-])cc1` (centres unmarked) [Compound 14c], which IC50 [1, 5] is on record?
The IC50 was 160 µM.

Which IC50 ([1]; Plasmodium falciparum, D10, read-out: D10: IC50, CQS strain D10, n = 6 data sets averaged) does the source give for `CCN(CC)CCCC(C)Nc1ccnc2cc(Cl)ccc12` (centres unmarked) [CQ, reference compound] here?
Its IC50 is 0.0191 µg/mL.

What about the IC50 [2, 7] of the same compound?
The IC50 was 0.0756 µg/mL.

And the “RI (Resistance Index) = IC50 Dd2/IC50 D10” value [2]?
The value was 3.9.

With `CC(C)(C)N[C@H](CO)[C@H](O)c1ccccc1F` [Compound 12b] as the compound, how does the IC50 [1, 6] read?
Its IC50 is 60.5 µM.

Which IC50 [1, 4] does the source give for `c1ccc(CN2CC2Cn2cc(-c3ccccc3)nn2)cc1` (centres unmarked) [Compound 15a, 1-Phenylmethyl-2-[(4-phenyl-1,2,3-triazol-1-yl)methyl]aziridine] here?
The IC50 was 34.4 µM.

What about the IC50 ([3]; Cricetulus griseus, CHO) of the same compound?
Its IC50 is over 530 µM.

And the IC50 [2, 7]?
Its IC50 is 107 µM.

What about the “RI (Resistance Index) = IC50 Dd2/IC50 D10” value [2] of the same compound?
The value was 3.1.

With `CCCNC(CO)Cc1ccccc1F` (centres unmarked) [Compound 6c] as the compound, how does the IC50 [1, 5] read?
Its IC50 is 217 µM.

For `COc1ccc(CC(CO)NCC(C)C)cc1` (centres unmarked) [Compound 6b], which IC50 [1, 5] is on record?
Its IC50 is 282 µM.

With `OCC(NCc1ccc(Cl)cc1)C(O)c1ccccc1` (racemic) [Compound 9d] as the compound, how does the IC50 [1, 5] read?
The IC50 was 80.7 µM.

What does the source list for `Cc1ccc(-c2cn(CC3CN3Cc3ccccc3)nn2)cc1` (centres unmarked) [Compound 15d]?
IC50 [1, 4]: ≤ 25 µM; antiplasmodial activity (in words) [1]: weak antiplasmodial activity; IC50 [1, 8]: 20.4 µM; IC50 ([3]; Cricetulus griseus, CHO): > 530 µM; IC50 [2, 7]: 21 µM; RI (Resistance Index) = IC50 Dd2/IC50 D10 [2]: 1

Which IC50 [1, 5] does the source give for `CCCNC(CO)C(OC)c1ccccc1F` (racemic) [Compound 8e] here?
The IC50 was 38.5 µM.

And the IC50 [3, 9]?
Its IC50 is over 530 µM.

And the IC50 [2, 10]?
The IC50 was 21.9 µM.

And the “RI (Resistance Index) = IC50 Dd2/IC50 D10” value [2]?
Its value is 0.6.

What does the source list for `CN(C)CC(Cn1cc(-c2ccccc2)nn1)NCc1ccccc1Cl` (centres unmarked) [Compound 16f]?
IC50 [3, 11]: 182 µM; SI (Selectivity Index) = IC50 CHO/IC50 D10 [3]: 16.1; IC50 [2, 12]: 13 µM; RI (Resistance Index) = IC50 Dd2/IC50 D10 [2]: 1.2

With `[N-]=[N+]=NCC1CN1Cc1ccc(Cl)cc1` (centres unmarked) [Compound 14b] as the compound, how does the IC50 [1, 5] read?
The IC50 was 101 µM.

With `CCN(CC)CC(Cn1cc(-c2ccc(OC)cc2)nn1)NCc1ccccc1` (centres unmarked) [Compound 16e] as the compound, how does the IC50 [1, 6] read?
Its IC50 is 171 µM.

For `CC[C@H]1CN2CCc3cc(OC)c(OC)cc3[C@@H]2C[C@@H]1C[C@H]1NCCc2cc(OC)c(OC)cc21` [Emetine, reference compound], which IC50 [3, 11] is on record?
The IC50 was 0.27 µM.

For `OCC(Cc1ccc(Cl)cc1)NCc1ccccc1` (centres unmarked) [Compound 6a], which IC50 [1, 5] is on record?
Its IC50 is ≤ 25 µM and 12.6 µM.

And the IC50 [3, 9]?
Its IC50 is 138 µM.

What about the “SI (Selectivity Index) = IC50 CHO/IC50 D10” value [3] of the same compound?
Its value is 11.

And the IC50 [2, 10]?
Its IC50 is 10.9 µM.

What about the “RI (Resistance Index) = IC50 Dd2/IC50 D10” value [2] of the same compound?
The value was 0.9.

With `[N-]=[N+]=NCC1CN1Cc1ccccc1Cl` (centres unmarked) [Compound 14d] as the compound, how does the IC50 [1, 5] read?
Its IC50 is 93.7 µM.

For `[N-]=[N+]=NCC1CN1Cc1cccc(Cl)c1` (centres unmarked) [Compound 14e], which IC50 [1, 5] is on record?
Its IC50 is 180 µM.

Which IC50 [1, 4] does the source give for `[N-]=[N+]=NCC1CN1Cc1ccccc1` (centres unmarked) [Compound 14a, 2-Azidomethyl-1-(phenylmethyl)aziridine] here?
The IC50 was 230 µM.

What about the IC50 ([3]; Cricetulus griseus, CHO) of the same compound?
Its IC50 is over 530 µM.

And the IC50 [2, 7]?
The IC50 was 467 µM.

What about the “RI (Resistance Index) = IC50 Dd2/IC50 D10” value [2] of the same compound?
The value was 2.

Which results are given for `CCN(CC)CC(Cn1cc(-c2ccccc2)nn1)NCc1ccccc1` (centres unmarked) [Compound 16a, 3-Diethylamino-2-(phenylmethyl)amino-1-(4-phenyl-1,2,3-triazol-1-yl)propane]?
IC50 [1, 5]: 22.1 µM; IC50 [1, 6]: ≤ 25 µM; IC50 [3, 11]: > 530 µM; IC50 [2, 12]: 231 µM; RI (Resistance Index) = IC50 Dd2/IC50 D10 [2]: 10.5

With `Cc1ccc(C(O)C(CO)NCc2ccccc2)cc1` (racemic) [Compound 9c] as the compound, how does the IC50 [1, 5] read?
The IC50 was 130 µM.

Which IC50 [1, 5] does the source give for `COC(c1ccccc1)C(CO)NCc1ccccc1` (racemic) [Compound 8b] here?
Its IC50 is 144 µM.

With `COC(c1ccc(Cl)cc1)C(CO)NCc1ccccc1` (racemic) [Compound 8c] as the compound, how does the IC50 [1, 5] read?
Its IC50 is 199 µM.

With `COC(c1ccccc1)C(CO)NC(C)C` (racemic) [Compound 8a] as the compound, how does the IC50 [1, 5] read?
The IC50 was 370 µM.

Which IC50 [1, 5] does the source give for `CN(C)CC(Cn1cc(-c2ccccc2)nn1)NCc1ccccc1` (centres unmarked) [Compound 16g] here?
The IC50 was 69.6 µM.

For `COc1ccc(CN2CC2Cn2cc(-c3ccccc3)nn2)cc1` (centres unmarked) [Compound 15c], which IC50 [1, 4] is on record?
Its IC50 is at most 25 µM.

What about the “antiplasmodial activity (in words)” value [1] of the same compound?
Its value is “weak antiplasmodial activity”.

What about the IC50 [1, 8] of the same compound?
The IC50 was 25.7 µM.

And the IC50 ([3]; Cricetulus griseus, CHO)?
Its IC50 is over 530 µM.

And the IC50 [2, 7]?
The IC50 was 55.6 µM.

And the “RI (Resistance Index) = IC50 Dd2/IC50 D10” value [2]?
The value was 2.2.

What does the source list for `CCN(CC)CC(Cn1cc(-c2ccccc2)nn1)NCc1ccc(Cl)cc1` (centres unmarked) [Compound 16b]?
IC50 [1, 5]: ≤ 25 µM and 25.9 µM; IC50 [3, 9]: > 530 µM; IC50 [2, 10]: 176 µM; RI (Resistance Index) = IC50 Dd2/IC50 D10 [2]: 6.8

Which IC50 [1, 5] does the source give for `CCN(CC)CC(Cn1cc(-c2ccc(C)cc2)nn1)NCc1ccccc1` (centres unmarked) [Compound 16d] here?
Its IC50 is 32.5 µM.

Which IC50 [1, 5] does the source give for `OCC(NCc1ccccc1)C(O)c1ccc(Cl)cc1` (stereo not drawn) [Compound 9a, anti-2-(N-Benzylamino)-1-(4-chlorophenyl)propan-1,3-diol] here?
The IC50 was ≤ 25 µM and 25.2 µM.

What about the IC50 [3, 9] of the same compound?
The IC50 was over 530 µM.

And the IC50 [2, 10]?
The IC50 was 8.47 µM.

And the “RI (Resistance Index) = IC50 Dd2/IC50 D10” value [2]?
Its value is 0.3.

For `Clc1ccc(CN2CC2Cn2cc(-c3ccccc3)nn2)cc1` (centres unmarked) [Compound 15b], which IC50 [1, 5] is on record?
The IC50 was 41.3 µM.

For `CC(C)NCC(O)COc1cccc2ccccc12` (centres unmarked) [propranolol], which “infection of erythrocytes by P. falciparum” value (P. falciparum) is on record?
The value was “inhibit infection of erythrocytes”.

What about the “parasitaemia of P. berghei infections” value (P. berghei) of the same compound?
The value was “reduce the parasitaemia”.

Which IC50 [1, 5] does the source give for `COc1ccc(C(OC)C(CO)NCC(C)C)cc1` (racemic) [Compound 8d] here?
Its IC50 is 38.6 µM.

And the IC50 [3, 9]?
Its IC50 is over 530 µM.

What about the IC50 [2, 10] of the same compound?
Its IC50 is 25.7 µM.

What about the “RI (Resistance Index) = IC50 Dd2/IC50 D10” value [2] of the same compound?
The value was 0.7.

With `OCC(NCc1ccccc1)C(O)c1ccccc1Cl` (racemic) [Compound 9b] as the compound, how does the IC50 [1, 5] read?
The IC50 was ≤ 25 µM and 21.2 µM.

And the IC50 [3, 9]?
Its IC50 is over 530 µM.

What about the IC50 [2, 10] of the same compound?
Its IC50 is 13.6 µM.

What about the “RI (Resistance Index) = IC50 Dd2/IC50 D10” value [2] of the same compound?
The value was 0.6.
